# Laboratory results: patent publication US10137099B2, “Activation of AMP-protein activated kinase by oxaloacetate compounds” (priority 2010, dated 2018)
# Where two headings read alike, the source gives them in different places.
# Tests used:
# C. elegans = C. elegans lifespan with functional and non-functional AMPK; type: in vivo, Caenorhabditis elegans; settings: for lifespan of worms with non-functional alpha AMPK subunit: dysfunctional aak-2 subunit; for lifespan of worms with non-functional alpha AMPK subunit / increase of lifespan: 8 mM oxaloacetate; for increase of lifespan: worms with functional FOXO/DAF-16 and AMPK, p<0.001
# Protocol: I have assayed the CR mimetic OAA for AMPK activation by using the worm C. elegans containing a non-functional alpha AMPK subunit, and have compared lifespan with and without the functional AMPK subunit. […] Graph 1 is the Kaplan-Meyer survival curves for worms with functional and non-functional AMPK showing the difference in lifespan.
# AMPK activation is necessary to increase lifespan of C. elegans when exposed to 8 mM concentrations of oxaloacetate. The increase in lifespan averages approximately 25%, p<0.001.
# mouse = tested on: mouse
# Text: (§1) I have investigated the toxicity of OAA in an acute study and two chronic studies.
# (§2) The dose ratio between toxic and therapeutic effects is the therapeutic index and it can be expressed as the ratio LD50/ED50.
# older mice = assay: Chronic eighteen-month study in older mice; type: in vivo; settings: 380 mg OAA/kg of mouse, eighteen months
# in vivo = settings: rat
# Text: as §1, §2
# [1] = Hydrated/keto/enol composition in water; type: physicochemical; settings: pH 6.9 (oxaloacetic acid), Na-OAA dissolved in water
# Text: The oxaloacetate can be in three forms depending on the pH of the solution. At low pH (<1.5) and low temperature (<4 degrees C.) oxaloacetate hydrates. […] The hydrated form is mostly converted once it enters the higher pH of the body outside of the intestinal tract to the keto and enol form. […] Enol-oxaloacetate is convert to keto-oxaloacetate with the enzyme enol-keto tautomerase, a ubiquitous enzyme throughout the human body.
# (§3) The keto-oxaloacetate decarboxylates quickly to pyruvate. As the keto-oxaloacetate form disappears due to decarboxylation, the enol and hydrated form convert to keto-oxaloacetate, and then also decarboxylate into carbon dioxide and pyruvate, until all the oxaloacetate is consumed. Note that neither of the byproducts of oxaloacetate decarboxylation, carbon dioxide and pyruvate, are effective in activating AMPK.
# (§4) The keto-oxaloacetate decarboxylates quickly, followed by enol conversion to keto form and further decarboxylation. […] Na-OAA has no shelf life, and is not available commercially.
# [2] = Stability and shelf life of oxaloacetic acid forms; settings: for stability / shelf life at room temperature: kept dry, reduced water content
# Text: as §3, §4
# There is an energy gap between the enol and keto form which is bridged when the compounds are exposed to water, however, this same energy gap prevents the conversion of the enol to keto form when the product is kept dry. Once there is a conversion to the keto form, decarboxylation can spontaneously occur at temperatures above the freezing point of water. […] Drying effectiveness can be increased by increasing the drying time, drying under vacuum, by using anhydrous washes of isopropyl alcohol or ethyl alcohol to absorb the remaining water (and then evaporating the alcohol), or by performing multiple washes with hexane or non-water soluble solvent to physically remove the water, typically after an alcohol wash. The non-water soluble solvent would then be evaporated off. […] Hexane is a residual solvent in many commercial food preparations including decaffeinated coffee, and is not toxic in small quantities. Alternatively, the final wash can be performed with liquefied propane, liquefied butane, ethyl acetate, ethane, carbon dioxide, or nitrous oxide to reduce the water content.
# Biochem., vol. 26, pp. 418-421, 1950, also in Heidelberger; “The Synthesis of Oxalacetic Acid-1-C14 and Orotic Acid-6-C14”, Biochem. Prepn. 3, 59 (1953) pp 4704-4706.
# [3] = Removal of orally consumed oxaloacetic acid from blood stream into cells; type: in vivo, human
# Protocol: The oxaloacetic acid is converted to the ionic form oxaloactate in the digestive tract, and is then absorbed into the body and is distributed throughout the body via the bloodstream. […] At time 0, the amount detected was 0 ug/100 ml blood, at time 30 minutes 0 ug/100 ml blood, and at time 60 minutes ranged from […] blood. […] Within the cells the oxaloacetate reacts into L-malate as it encounters the enzyme malate dehydrogenase (MDH). MDH is ubiquitous in human cells, and the conversion of oxaloacetate to malate is very energetically favorable (the Gibbs Free Energy, delta G, is highly negative (−29.7) indicating the reaction is very favorable to proceed). As oxaloacetate is converted to malate, NADH is converted to NAD+. The resulting increase in the NAD+/NADH ratio leads to the phosphorylation (activation) of AMPK (Rafaeloff-Phail R, Ding L, Conner L, et al. “Biochemical regulation of mammalian AMP-activated protein Kinase activity by NAD and NADH”. J Biol Chem 2004; 279: 52934-9). AMPK serves to stimulate glucose uptake into the skeltal tissues and thereby reduces glucose levels. The immediate reduction is best seen with a glucose tolerance test in individuals that have defective leptin signaling (including overweight and obese persons) that are fasting. […]
# [4] = Glucose related effects of supplementation in humans; type: in vivo, human; settings: non-diabetic patients
# Text: Glucose related effects in humans have measured an 8 to 10% drop in fasting glucose levels in non-diabetic patients, a drop in triglyceride levels by 10% and a 55% reduction in the amplitude of fasting blood glucose levels.
# [5] = Blood-brain barrier penetration
# Text: AMPK activation has been associated with reduced Alzheimer risk and potentially with Alzheimer's treatment (Richter, Erik and Ruderman, Neil, “AMPK and the biochemistry of exercise: implications for human health and disease” Biochem. J. (2009) 418, 261-275). Thus OAA may be used for reducing the risk of Alzheimer's disease and for treatment of the same.
# [6] = tested on: human A549 lung cancer tissue; settings: uM levels, contact solution of 76 uM; not within normal tissue; cancer tissue unable to reproduce for six weeks; cited from earlier work
# rats = settings: cited from earlier work
# [7] = 21 diabetic patients, cited from earlier work
# [8] = Example 1: non-diabetic subject, blood panel after 6 months; type: in vivo, human
# Protocol: A non-diabetic subject is given 100 mg anhydrous enol-oxaloacetic acid in solid form for a period of 6 months to reduce blood triglycerides and glucose levels. AMPK is activated and the treatment is effective.
# [9] = Example 2: fasting blood glucose tracked for several weeks; type: in vivo, human; settings: 100 mg daily
# Text: The amplitude of the patient's swings in fasting glucose decrease by 55% due to improved glucose homeostasis. AMPK is activated and overall fasting glucose levels drop by 8%. The data is shown in Graph 3.
# [10] = Example 3: body weight of obese patient over three months; type: in vivo, human
# Text: AMPK is activated and the patient drops in weight from 258 to 234 pounds in a three month period. The patient is no longer obese.
# [11] = Example 4: maintenance of weight loss after diet; type: in vivo, human; settings: 100 mg daily
# Text: A patient successfully loses 24 pounds.
# [12] = Example 5: blood pressure in patient with hypertension; type: in vivo, human; settings: 100 mg daily for three months
# Text: A patient is diagnosed with hypertension. […] The patient's blood pressure decreases by 10%.
# ob/ob and db/db mice = settings: 8 day administration; cited from earlier work
# [13] = Decrease (Improvement), February to August 2007
smiles,measurement,setting,value
O=C(O)CC(=O)C(=O)O [oxaloacetic acid],lifespan of worms with non-functional alpha AMPK subunit,C. elegans,no increase in lifespan
same,lifespan of worms with non-functional alpha AMPK subunit,C. elegans; listed as OAA,will not increase the lifespan
same,lifespan of wild type worms subjected to calorie restriction,"C. elegans; functional AMPK, calorie restriction plus OAA supplementation",do not have their lifespan increased
same,increase of lifespan,C. elegans,approximately 25%
same,increase of lifespan,C. elegans; listed as OAA,25%
same,LD50,"mouse; acute study, taken with food","more than 5,000 mg OAA/Kg of mouse"
same,LD50,"mouse; mouse, in vivo",above 5 g/kg of body weight
same,lived longer than the control group,older mice,25%
same,NOAEL at 90 days,in vivo,500 mg/kg
same,fraction in the enol form,[1],11%
same,fraction in the hydrated form,[1],5%
same,fraction in the keto form,[1],84%
same,time to decarboxylation,[2]; divalent cations in the fluid,within a day
same,time until most is moved from the blood stream into individual cells,[3],≤ 120 min
same,drop in triglyceride levels,[4],10%
same,reduction in the amplitude of fasting blood glucose levels,[4],55%
same,blood-brain barrier penetration,[5],can penetrate the blood-brain barrier
same,effect on cancer tissue,[6],differential massive debris within the cancer tissue
same,pancreas findings at 41 mg/kg of body weight,rats; 41 mg/kg,proliferation and hyperplasia of the islet cells
same,pancreas findings at 83 mg/kg of body weight,rats; 83 mg/kg,caused changes in pancreatic islets
same,side effects,"[7]; 100 mg to 1,000 mg (2-10 mg/kg)",no negative side effects
same,blood glucose levels,"[7]; 100 mg to 1,000 mg",dropped significantly in all patents
same,patients in whom urine glucose levels dropped,"[7]; 100 mg to 1,000 mg",19 out of the 21
O=C(O)CC(O)(O)C(=O)O [hydrated form of oxaloacetic acid],shelf life,[2],no shelf life
same,time of stability,[2],less than one-week's time
O=C([O-])CC(=O)C(=O)O.[Na+] [sodium oxaloacetate],fraction in the enol form,[1],11%
same,fraction in the hydrated form,[1],5%
same,fraction in the keto form,[1],84%
same,shelf life,[2],no shelf life
O=C(O)CC(=O)C(=O)O [anhydrous enol-oxaloacetic acid],stability / shelf life at room temperature,[2],exceeding one year
same,stability / shelf life at room temperature,[2]; listed as reduced water content oxaloacetate form,exceed one year
same,product decay,"[2]; room temperatures, shelf life exceeding one year",less than 1%
same,"Glucose Fasting, August 2007","[8]; 100 mg daily for 6 months, February 2007 baseline 97",89 mg/dL
same,Glucose Fasting % Change,[8]; [13],8.25%
same,Triglyceride % Change,[8]; [13],8.93%
same,"Creatinine, August 2007","[8]; after 6 months, baseline 1",0.9 mg/dL
same,"TSH, August 2007","[8]; after 6 months, baseline 1.41",1.32 uIU/ml
same,"Albumin, August 2007","[8]; after 6 months, baseline 4.4",4.2 g/dL
same,"K (Potassium), August 2007","[8]; after 6 months, baseline 4.6",4.5 mEq/L
same,"Bun-Ser, August 2007","[8]; after 6 months, baseline 14",12 mg/dL
same,"AST (SGOT), August 2007","[8]; after 6 months, baseline 16",15 IU/L
same,"Lipase, August 2007","[8]; after 6 months, baseline 17",19 u/l
same,"CO2 (Carbon Dioxide), August 2007","[8]; after 6 months, baseline 27",29 mEq/L
same,"ALK P'TASE, August 2007","[8]; after 6 months, baseline 36",37 IU/L
same,"HDL Ser Cholesterol, August 2007","[8]; after 6 months, baseline 42",42 mg/dL
same,"Cl (Chloride), August 2007","[8]; after 6 months, baseline 110",108 mEq/L
same,"Triglyceride, August 2007","[8]; after 6 months, baseline 112",102 mg/dL
same,"LDL Cholesterol, August 2007","[8]; after 6 months, baseline 138",138 mg/dL
same,"Na (Sodium), August 2007","[8]; after 6 months, baseline 144",143 mEq/L
same,"Total Cholesterol, August 2007","[8]; after 6 months, baseline 202",203 mg/dL
same,decrease of amplitude of swings in fasting glucose,[9],55%
same,drop of overall fasting glucose levels,[9],8%
same,Ending Weight May 2007,"[10]; 100 mg daily, three month period, starting weight 258",234 pounds
same,Percent Reduction of weight,[10]; February 2007 to May 2007,9.3%
same,"liver genes Acaa1, Cnbp, Fasn, Idil, Ndufabl, Pcx, Sc5d (human homologues)",[11],down regulates
same,regain of weight lost,"[11]; one-year period after the diet, 24 pounds lost",does not regain the weight lost
same,decrease of blood pressure,[12],10%
"NC(=O)c1ncn([C@@H]2O[C@H](CO)[C@@H](O)[C@H]2O)c1N [AICAR, 5-Aminoimidazole-4-darboxamide ribonucleoside]",reduction of blood glucose,ob/ob and db/db mice,35%
